Substitutions are numbered along the chain they refer to. Read-outs that look alike come from different tables or passages of the source. Each block holds one compound with its values, some of them ahead of it.
Legend:
[1] = biological target: T1, AR protein (Homo sapiens, UniProt P10275, T878A); experiment: Cycloheximide chasing assay of AR degradation in LNCaP cells; assay type: cell-based; conditions: in the presence of cycloheximide (CHX)
T1 sequence (P10275 1-920 T878A): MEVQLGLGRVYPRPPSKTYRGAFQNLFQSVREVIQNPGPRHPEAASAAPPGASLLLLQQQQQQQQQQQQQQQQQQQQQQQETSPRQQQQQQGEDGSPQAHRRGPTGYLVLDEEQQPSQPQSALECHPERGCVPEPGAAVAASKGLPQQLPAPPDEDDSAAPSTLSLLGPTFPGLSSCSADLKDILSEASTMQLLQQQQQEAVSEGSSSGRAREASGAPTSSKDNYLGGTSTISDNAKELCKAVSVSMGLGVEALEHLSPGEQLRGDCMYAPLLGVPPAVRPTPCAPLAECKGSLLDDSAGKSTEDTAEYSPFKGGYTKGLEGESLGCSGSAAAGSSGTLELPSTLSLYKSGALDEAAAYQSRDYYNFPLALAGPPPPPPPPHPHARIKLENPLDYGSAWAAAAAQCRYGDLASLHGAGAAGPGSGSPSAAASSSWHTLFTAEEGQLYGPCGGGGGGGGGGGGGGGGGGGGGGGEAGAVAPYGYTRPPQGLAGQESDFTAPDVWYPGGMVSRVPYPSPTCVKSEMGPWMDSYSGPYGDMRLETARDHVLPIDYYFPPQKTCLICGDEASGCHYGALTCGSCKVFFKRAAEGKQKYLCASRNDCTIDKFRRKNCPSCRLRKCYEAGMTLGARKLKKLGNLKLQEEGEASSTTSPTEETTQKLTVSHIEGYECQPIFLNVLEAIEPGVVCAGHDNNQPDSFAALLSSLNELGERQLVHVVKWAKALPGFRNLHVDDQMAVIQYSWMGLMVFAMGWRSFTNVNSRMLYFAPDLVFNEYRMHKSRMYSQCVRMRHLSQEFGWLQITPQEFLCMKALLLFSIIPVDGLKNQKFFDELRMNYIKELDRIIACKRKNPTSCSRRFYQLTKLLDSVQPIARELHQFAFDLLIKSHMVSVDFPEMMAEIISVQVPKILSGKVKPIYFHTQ
Description: AR protein “degradation” in prostate cancer cells was measured by using cycloheximide (a protein synthesis inhibitor) chasing assay method. Briefly, LNCaP cells were incubated with testing ASC compound at the designated concentrations for 24 hours. Subsequently, cycloheximide was added to the cells at a concentration of 15 μg/ml to block new protein synthesis. After incubation, cells were harvested at designated time periods and the resultant change in AR protein levels were analysed using Western Blot analysis as described above.

[2] = biological target: T2, Androgen Receptor (AR) protein expression (Homo sapiens, UniProt P10275, T878A); experiment: Western Blot analysis of AR protein expression in LNCaP cells; assay type: cell-based
T2 sequence (P10275 1-920 T878A): T1 sequence (P10275 1-920 T878A)

[3] = biological target: T3, Androgen Receptor (AR) protein expression (Homo sapiens, UniProt P10275, H875Y, form not given); experiment: Western Blot analysis of AR protein expression in CWR22Rv1 cells; conditions: for IC50: read-out: Reduction of AR expression IC50 (μM) 24 h, Western blotting, 24 h post-incubation
T3 sequence (P10275 1-920 H875Y): T1 sequence (P10275 1-920 T878A) with H875Y, A878T

[4] = system: CWR22Rv1 cells (human prostate cancer); experiment: MTT cell growth assay, CWR22Rv1 cells; assay type: cell-based; conditions: 5 days, read-out: Inhibition of Tumor cells growth IC50
Description: The MTT cell proliferation assay was applied in the present invention to detect the capability of compounds to suppress or inhibit prostate cancer cells growth. […] Briefly, 1×10^3 LNCaP or CWR22Rv1 cells suspended in complete medium were plated into each well of a 96-well Microtest III tissue culture plate (Falcon, N.J.). Two days later, the medium was replaced with RPMI-1640 medium containing 10% charcoal/dextran-deprived FBS (hormone-deprived fetal bovine serum). Testing compounds were added to the medium at indicated concentrations with or without 1 nM DHT and cells were cultured for 5 days in an incubator (at 37° C.). MTT substrate solution (5 mg/ml in PBS) in 1/10 of volume was added to the cells in each well at 2 hours before harvesting. After 2 hour incubation, the plates were centrifuged (10 min at 1,000 rpm) and the supernatant from each well was carefully removed. A 100 μl of lysis buffer (50% dimethyl formamide, 5% sodium dodecyl sulphate, 0.35 M acetic acid, and 50 mM HCl) was added to each well to lyse the cells and dissolved tetrazolium in each well. The relative quantity of enzyme activity from each well was measured based on absorbance read at a wavelength of 450 nm using a Bio-RAD BenchMark microplate reader. Data derived from the MTT assay were also verified by the actual cell count and cell morphology on a separate plate set up in parallel.
For inhibition of tumor cell growth, in vitro, cells were growth in the presence of testing compounds for 5 days, and the cell growth was assayed by standard MTT assay.

[5] = Stability in acidic condition (0.1 N HCl, 37° C.); assay type: physicochemical
Text: (§1) Also, at 24 hr where stability of JM49 was only 4%, while its derivative Compound 6 had improved to 79%. Similar improvements in stability (from 6-24 hr) were also observed in the conditions of rat plasma (Table 4) and human plasma (Table 5).

[6] = Stability in human plasma; assay type: in vitro ADME; conditions: 37° C.
Text: as §1

[7] = Stability in rat plasma; assay type: in vitro ADME; conditions: 37° C.
Text: as §1

AR protein degradation (Western Blot, in words) [1]: enhances AR protein degradation
SMILES: COc1ccc(/C=C/C(=O)C2CC(c3ccc(OC)c(OC)c3)(C(C(=O)/C=C/c3ccc(OC)c(OC)c3)C(=O)/C=C/c3ccc(OC)c(OC)c3)CC2=O)cc1OC (centres unmarked) [ASC-JM5]

IC50 ([4]; Homo sapiens, 120 h): 2.4 µM
SMILES: COc1ccc(/C=C/C(=O)C(C)(CC2CC2)C(=O)/C=C/c2ccc(OC)c(OC)c2)cc1OC [Compound 1]

IC50 ([4]; Homo sapiens, 120 h): 4.6 µM | melting point: 128 to 129 °C
SMILES: COc1ccc(/C=C/C(=O)C(C)(CC2CCCCC2)C(=O)/C=C/c2ccc(OC)c(OC)c2)cc1OC [Compound 5]

Concentration change (%) in acidic condition ([5]; 0 h): 100% | Concentration change (%) in acidic condition ([5]; 1 h): 99% | Concentration change (%) in acidic condition ([5]; 2 h): 99% | Concentration change (%) in acidic condition ([5]; 4 h): 98% | Concentration change (%) in acidic condition ([5]; 24 h): 81% | Concentration change (%) in acidic condition ([5]; 48 h): 58% | Concentration change (%) in human plasma ([6]; 6 h): 95% | Concentration change (%) in human plasma ([6]; 24 h): 71% | Concentration change (%) in human plasma ([6]; 48 h): 49%
SMILES: COc1ccc(/C=C/C(=O)C(C)(CC(=O)N(C)C)C(=O)/C=C/c2ccc(OC)c(OC)c2)cc1OC [Compound 7]

melting point: 98 to 100 °C
SMILES: COc1ccc(/C=C/C(=O)C(F)(CC2CCC2)C(=O)/C=C/c2ccc(OC)c(OC)c2)cc1OC [Compound 14]

Concentration change (%) in acidic condition ([5]; 0 h): 100% | Concentration change (%) in acidic condition ([5]; 1 h): 14% | Concentration change (%) in acidic condition ([5]; 2 h): 8% | Concentration change (%) in acidic condition ([5]; 6 h): 0% | Concentration change (%) in acidic condition ([5]; 24 h): 0% | Concentration change (%) in rat plasma ([7]; 0 h): 100% | Concentration change (%) in rat plasma ([7]; 1 h): 93% | Concentration change (%) in rat plasma ([7]; 2 h): 88% | Concentration change (%) in rat plasma ([7]; 6 h): 73% | Concentration change (%) in rat plasma ([7]; 24 h): 27% | Concentration change (%) in rat plasma ([7]; 48 h): 7% | Concentration change (%) in human plasma ([6]; 0 h): 100% | Concentration change (%) in human plasma ([6]; 1 h): 88% | Concentration change (%) in human plasma ([6]; 2 h): 76% | Concentration change (%) in human plasma ([6]; 6 h): 45% | Concentration change (%) in human plasma ([6]; 24 h): 11% | Concentration change (%) in human plasma ([6]; 48 h): 1%
SMILES: COc1ccc(/C=C/C(=O)C(CC(=O)N(C)C)=C(O)/C=C/c2ccc(OC)c(OC)c2)cc1OC [JM77]

Further lines, the compound ahead of its results:

SMILES: COc1ccc(C=CC(=O)C=C(O)C=Cc2ccc(OC)c(OC)c2)cc1OC [ASC-J9 ®, 1,7-Bis-(3,4-dimethoxy-phenyl)-5-hydroxy-hepta-1,4,6-trien-3-one, reference compound]
AR protein degradation (Western Blot, in words) [1]: enhances AR protein degradation

SMILES: COc1ccc(/C=C/C(=O)C(C(=O)/C=C/c2ccc(OC)c(OC)c2)=C(O)/C=C/c2ccc(OC)c(OC)c2)cc1OC [ASC-JM4]
Reduction of AR expression (Western Blot, in words) [2]: capable of reducing endogenous AR expression | Reduction of AR expression (Western Blot, in words) [3]: capable of reducing endogenous AR expression

SMILES: COc1ccc(/C=C/C(=O)C(C)(CC2CCC2)C(=O)/C=C/c2ccc(OC)c(OC)c2)cc1OC [Compound 2]
melting point: 161 to 162 °C

SMILES: COc1ccc(C=CC(=O)C(CC2CCCC2)=C(O)C=Cc2ccc(OC)c(OC)c2)cc1OC [Compound 3]
IC50 [3]: 2.8 µM

SMILES: CCN(CC)C(=O)CC(C)(C(=O)/C=C/c1ccc(OC)c(OC)c1)C(=O)/C=C/c1ccc(OC)c(OC)c1 [Compound 6]
Concentration change (%) in acidic condition ([5]; 0 h): 100% | Concentration change (%) in acidic condition ([5]; 2 h): 100% | Concentration change (%) in acidic condition ([5]; 4 h): 99% | Concentration change (%) in acidic condition ([5]; 24 h): 79% | Concentration change (%) in acidic condition ([5]; 48 h): 56% | Concentration change (%) in human plasma ([6]; 0 h): 100% | Concentration change (%) in human plasma ([6]; 6 h): 91% | Concentration change (%) in human plasma ([6]; 24 h): 54% | Concentration change (%) in human plasma ([6]; 48 h): 27%

SMILES: COc1ccc(/C=C/C(=O)C(F)(CC2CC2)C(=O)/C=C/c2ccc(OC)c(OC)c2)cc1OC [Compound 13]
melting point: 104 to 105 °C

SMILES: COc1ccc(/C=C/C(=O)C(F)(CC(=O)N(C)C)C(=O)/C=C/c2ccc(OC)c(OC)c2)cc1OC [Compound 18]
IC50 ([4]; Homo sapiens, 120 h): > 7.5 µM

SMILES: CCCCC(F)(C(=O)C=Cc1ccc(OC)c(OC)c1)C(=O)C=Cc1ccc(OC)c(OC)c1 (centres unmarked) [Compound 19]
IC50 [4]: 4.7 µM | IC50 [3]: > 5 µM

SMILES: CCOC(=O)CCC(=O)C=Cc1ccc(O)c(OC)c1 [Monomer 6, 6-(4-Hydroxy-3-methoxy-phenyl)-4-oxo-hex-5-enoic acid ethyl ester]
melting point: 55 to 56 °C
